# How the values were obtained:
# human mGluR1 = molecular target: T1, human mGluR1 (Homo sapiens, UniProt Q13255); assay: Multispan Allosteric Profiling panel, Ca2+ (Gqi5); type: cell-based
# T1 construct: host or cells: HEK293 co-expressing Gqi5
# human mGluR3 = molecular target: T2, human mGluR3 (Homo sapiens, UniProt Q14832); assay: Multispan Allosteric Profiling panel, Ca2+ (Gqi5); type: cell-based
# T2 construct: host or cells: HEK293 co-expressing Gqi5
# native mouse mGluR2 = molecular target: T3, native mouse mGluR2 (Mus musculus, UniProt Q14BI2); assay: [35S]GTPγS binding to mouse cortex; type: biochemical; settings: absence of glutamate
# T3 construct: SAR218645 acted as a pure mGluR2 PAM at native mouse mGluR2 in the cortex; from tissue; host or cells: mouse cortex membranes
# T3 sequence (Q14BI2 19-872): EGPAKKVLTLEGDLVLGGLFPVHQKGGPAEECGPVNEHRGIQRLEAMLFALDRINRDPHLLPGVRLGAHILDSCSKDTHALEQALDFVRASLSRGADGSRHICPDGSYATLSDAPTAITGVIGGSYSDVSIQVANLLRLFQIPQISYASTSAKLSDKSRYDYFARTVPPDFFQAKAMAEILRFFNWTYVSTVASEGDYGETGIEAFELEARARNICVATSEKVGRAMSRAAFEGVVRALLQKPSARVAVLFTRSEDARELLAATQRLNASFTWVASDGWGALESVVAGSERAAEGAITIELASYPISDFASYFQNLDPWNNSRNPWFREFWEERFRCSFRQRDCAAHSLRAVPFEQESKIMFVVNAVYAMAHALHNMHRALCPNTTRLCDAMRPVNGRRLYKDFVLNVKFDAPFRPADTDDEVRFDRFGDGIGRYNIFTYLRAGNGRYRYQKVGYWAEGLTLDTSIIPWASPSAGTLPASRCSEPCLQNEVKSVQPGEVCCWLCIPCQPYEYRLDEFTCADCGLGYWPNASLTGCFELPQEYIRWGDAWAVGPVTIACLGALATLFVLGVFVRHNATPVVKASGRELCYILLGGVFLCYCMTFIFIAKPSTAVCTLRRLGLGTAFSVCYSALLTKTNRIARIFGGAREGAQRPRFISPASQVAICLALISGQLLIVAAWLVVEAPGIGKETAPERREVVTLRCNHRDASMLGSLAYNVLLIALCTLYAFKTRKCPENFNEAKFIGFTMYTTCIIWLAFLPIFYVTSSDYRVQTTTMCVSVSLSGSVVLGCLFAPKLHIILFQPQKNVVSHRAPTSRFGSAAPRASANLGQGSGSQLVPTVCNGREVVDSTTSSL
# Procedure: The assay was performed in 96-well filtration plates in 250 μl total volume. […] For termination of the reaction, the plate was filtered and dried prior to adding 50 μl Microscint 40, and counted on the 1450 TopCount Microbeta Counter. EC50 were calculated using 4-parameter curve fitting.
# Sprague-Dawley rats [1] = assay: Amphetamine-induced disruption of auditory evoked potentials (AEP); type: in vivo
# Source text: All recordings were made using Spike2 software (Cambridge Electronic Design, Cambridge, UK) running on a Windows PC connected to a 1401 interface (Cambridge Electronic Design, Cambridge, UK). EEG recordings were created by connecting the skull plug to an amplifying head stage (AI 1401, Axon Instruments, Union City, CA, USA), via a 6-channel commutator and cable (Plastics One, Roanoke, VA, USA). The signal was then further amplified with a multichannel amplifier (Cyberamp 380, Axon Instruments, Union City, CA, USA). Auditory stimuli were controlled by the interface via an eight channel power amplifier (SA8, Tucker Davis Technologies, Alachua, FL) connected to a patch panel (PP16, Tucker Davis Technologies), which was connected to speakers located above each cage (TDT Magnetic Speakers, Tucker Davis Technologies). During recording sessions, animals were placed inside standard mouse cages (30 × 15 × 15 cm) and rigged so that the six channel cables could connect with the rest of the apparatus outside of the cage.
# Male Sprague-Dawley rats (150–180 g at arrival) were anesthetized with 3% isoflurane and their scalp was shaved and prepared for surgery. An incision was made in the scalp and the skin was retracted to allow direct contact with the skull surface. The skull was cleaned with a dry Q-tip and five holes were drilled through the skull. Three holes were drilled at coordinates AP + 1 mm, ML + 1 mm (reference); AP−4 mm, ML ± 4 mm (leads 1 and 2) relative to bregma, while an additional hole was drilled in the frontal area (ground) and another hole was drilled at the midpoint between the anterior and posterior coordinate (anchor). […]
# AEP data analysis: Data were collected and analyzed using Spike2 software (CED Software, Cambridge, UK). […] Then a horizontal cursor was placed at the highest and lowest (peak and trough) point of the P1/N1 wave, for both the wave occurring to the first tone (S1) and to the second tone (S2), and the value was recorded into an Excel spreadsheet. […]
# Sprague-Dawley rats [2] = assay: Catalepsy test; type: in vivo; settings: 30, po
# Procedure: Male Sprague-Dawley rats weighing 225–234 g were used. Each animal was placed such that their forepaws rested on a wooden dowel (1 × 18 cm) mounted horizontally 9 cm from the floor and 4 cm from one end of a white translucent plastic box (26 × 20 × 15 cm). The amount of time each rat spent with at least one forepaw on the bar was determined, for a maximum period of 540 s. This procedure was repeated three times. White noise was used during the acclimation and test periods to minimize the effects of outside noises. SAR218645 was administered alone at a dose of 30 mg/kg po. Haloperidol (1 mg/kg ip) was used alone and in co-administration with SAR218645 (1, 3, and 10 mg/kg, po). Statistics consisted of using a one-way ANOVA, followed by a post-hoc Dunnett’s test for individual comparisons. Ten animals per group were used.
# OF1 mice = assay: 6-Hz electroshock-induced seizures; type: in vivo; settings: dose-range 10–30, ip
# Procedure: SAR218645 (10 and 30 mg/kg, po) and the reference anticonvulsant agent, levetiracetam (20 mg/kg), were administered ip. to OF1 mice (12–14 g) 30 min prior to test, respectively. An electrical stimulus (6 Hz, 0.2 ms rectangular pulse, 3 s duration, 32 mA) was applied to both corneas. Animals were closely observed and rated for seizure behavior according to a modified Racine scale. Kruskal-Wallis multiple comparisons test was used to assess potential differences between treatment groups.
# T2 sequence (Q14832 23-879): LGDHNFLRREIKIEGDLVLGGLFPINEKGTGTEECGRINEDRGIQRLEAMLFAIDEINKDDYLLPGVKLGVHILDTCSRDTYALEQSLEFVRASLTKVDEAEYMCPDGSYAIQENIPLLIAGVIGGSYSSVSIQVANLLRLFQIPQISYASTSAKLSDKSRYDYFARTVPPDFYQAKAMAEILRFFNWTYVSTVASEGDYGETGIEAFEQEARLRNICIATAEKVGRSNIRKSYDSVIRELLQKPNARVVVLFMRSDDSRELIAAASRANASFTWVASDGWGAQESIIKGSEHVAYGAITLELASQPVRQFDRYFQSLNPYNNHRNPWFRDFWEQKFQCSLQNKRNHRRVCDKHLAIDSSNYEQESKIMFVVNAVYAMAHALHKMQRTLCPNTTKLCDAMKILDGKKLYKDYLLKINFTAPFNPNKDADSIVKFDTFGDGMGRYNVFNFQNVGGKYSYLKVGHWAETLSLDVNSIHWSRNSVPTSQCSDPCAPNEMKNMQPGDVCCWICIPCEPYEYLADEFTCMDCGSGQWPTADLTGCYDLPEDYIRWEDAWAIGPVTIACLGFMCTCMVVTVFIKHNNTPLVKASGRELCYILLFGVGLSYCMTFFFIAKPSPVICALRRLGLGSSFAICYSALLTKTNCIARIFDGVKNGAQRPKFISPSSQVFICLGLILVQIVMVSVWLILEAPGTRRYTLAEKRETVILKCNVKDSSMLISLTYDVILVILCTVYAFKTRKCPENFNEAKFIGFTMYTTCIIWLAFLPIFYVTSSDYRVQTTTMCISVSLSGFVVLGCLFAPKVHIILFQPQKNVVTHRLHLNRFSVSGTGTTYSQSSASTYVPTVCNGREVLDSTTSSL
# T1 sequence (Q13255 19-1194): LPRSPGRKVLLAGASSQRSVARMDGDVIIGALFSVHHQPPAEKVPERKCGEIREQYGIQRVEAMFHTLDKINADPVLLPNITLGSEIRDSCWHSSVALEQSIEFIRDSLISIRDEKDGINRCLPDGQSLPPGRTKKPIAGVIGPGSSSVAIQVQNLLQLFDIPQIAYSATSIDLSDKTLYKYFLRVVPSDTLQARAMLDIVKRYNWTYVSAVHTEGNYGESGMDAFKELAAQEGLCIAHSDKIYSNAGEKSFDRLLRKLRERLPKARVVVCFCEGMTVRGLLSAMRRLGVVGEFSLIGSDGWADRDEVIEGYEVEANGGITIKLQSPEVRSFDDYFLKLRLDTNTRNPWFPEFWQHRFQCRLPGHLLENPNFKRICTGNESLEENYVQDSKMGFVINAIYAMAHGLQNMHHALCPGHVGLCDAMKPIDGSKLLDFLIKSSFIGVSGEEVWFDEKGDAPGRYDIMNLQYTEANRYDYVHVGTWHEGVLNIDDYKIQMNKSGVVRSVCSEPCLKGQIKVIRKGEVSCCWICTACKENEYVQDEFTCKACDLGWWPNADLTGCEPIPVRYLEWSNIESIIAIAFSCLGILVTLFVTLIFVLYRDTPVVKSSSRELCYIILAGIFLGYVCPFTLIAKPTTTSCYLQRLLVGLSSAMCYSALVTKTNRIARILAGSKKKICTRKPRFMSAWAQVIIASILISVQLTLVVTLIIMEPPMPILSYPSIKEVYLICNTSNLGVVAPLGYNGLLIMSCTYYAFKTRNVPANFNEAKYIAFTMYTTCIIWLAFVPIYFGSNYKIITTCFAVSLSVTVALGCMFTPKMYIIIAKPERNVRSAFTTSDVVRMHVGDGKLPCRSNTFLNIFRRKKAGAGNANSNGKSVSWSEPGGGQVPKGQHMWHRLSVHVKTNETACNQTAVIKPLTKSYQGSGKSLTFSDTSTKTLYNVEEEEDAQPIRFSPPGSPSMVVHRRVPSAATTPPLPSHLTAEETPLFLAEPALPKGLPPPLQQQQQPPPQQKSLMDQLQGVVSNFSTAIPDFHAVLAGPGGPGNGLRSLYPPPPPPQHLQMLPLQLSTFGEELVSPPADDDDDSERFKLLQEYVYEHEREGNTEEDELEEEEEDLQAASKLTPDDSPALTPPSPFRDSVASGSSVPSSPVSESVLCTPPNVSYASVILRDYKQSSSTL
structure (smiles),measurement,setting,value
"CC1(C)CCc2cc(OC[C@@H]3Cn4ccc(=O)nc4O3)ccc21 [SAR218645, (S)-2-(1,1-dimethyl-indan-5-yloxymethyl)-2,3-dihydro-oxazolo[3,2-a]pyrimidin-7-one]",effect on glutamate-induced activation,human mGluR1; 10 μM SAR218645,no effect
same,calcium response to compound alone,human mGluR1; SAR218645 alone,did not elicit a calcium response
same,effect on glutamate-induced increases in intracellular calcium,human mGluR3; 10 μM SAR218645,no effect
same,calcium response to compound alone,human mGluR3; SAR218645 alone,did not elicit a calcium response
same,intrinsic activity,native mouse mGluR2,did not have any intrinsic activity
same,effect on amphetamine-disrupted auditory gating (S2/S1 ratio),"Sprague-Dawley rats [1]; 0.3 and 3 mg/kg po, amphetamine 3 mg/kg",attenuated amphetamine-induced disrupted gating
same,Minimal active dose,"Sprague-Dawley rats [1]; dose-range 0.3–3, po, Sprague-Dawley rats",0.3 mg/kg
same,Minimal active dose,Sprague-Dawley rats [2],>30 mg/kg
same,Minimal active dose,OF1 mice,>30 mg/kg

# — PMC5062470, “The mGluR2 positive allosteric modulator, SAR218645, improves memory and attention deficits in translational models of cognitive symptoms associated with schizophrenia” (Scientific Reports, 2016)
